Experimental data reported in ChEMBL document CHEMBL1681689, “Discovery of N-methyl-1-(1-phenylcyclohexyl)ethanamine, a novel triple serotonin, norepinephrine and dopamine reuptake inhibitor” (Bioorg Med Chem Lett, 2011).

Tested on: not listed separately
Assay: Half life in mouse liver microsomes by in vitro metabolic stability assay
Type: ADME, Microsome
Details: liver microsomes

SMILES | half-life [min]
CC(N)C1(c2cccc3ccccc23)CCCCC1 (configuration not stated) | 80
CCC(N)C1(c2ccc(Cl)c(Cl)c2)CCCCC1 (racemic) | 56
CC(C)CC(N(C)C)C1(c2ccc(Cl)c(Cl)c2)CCCCC1 (racemic) | > 300

Same assay, conditions: microsomes

SMILES | t1/2 [min]
CNC(C)C1(c2ccc3ccccc3c2)CCCCC1 (single isomer, unassigned; enantiomer 2) | 11
CC(N)C1(c2ccc(Cl)c(Cl)c2)CCCCC1 (racemic) | 163
CNC(C)C1(c2ccc(Cl)c(Cl)c2)CCCCC1 (stereo in doubt; 24) | 52
CC(N(C)C)C1(c2ccc(Cl)c(Cl)c2)CCCCC1 (single isomer, unassigned) | 28
CC(N)C1(c2ccc(Cl)c(Cl)c2)CCCCC1 (single isomer, unassigned; enantiomer 1) | 84
CNC(C)C1(c2ccc(Cl)c(Cl)c2)CCCCC1 (racemic) | 154
CC(N(C)C)C1(c2ccc3ccccc3c2)CCCCC1 (single isomer, unassigned; form 1) | 19
CC(N(C)C)C1(c2ccc3ccccc3c2)CCCCC1 (single isomer, unassigned; enantiomer 2) | 23
CC(N)C1(c2ccc3ccccc3c2)CCCCC1 (single isomer, unassigned) | 11
CNC(C)C1(c2ccc(Cl)c(Cl)c2)CCCCC1 (single isomer, unassigned) | 54
CC(N)C1(c2ccc3ccccc3c2)CCCCC1 (single isomer, unassigned; enantiomer 2) | 14
CC(N(C)C)C1(c2ccc(Cl)c(Cl)c2)CCCCC1 (single isomer, unassigned; enantiomer 1) | 25

Target: Sodium-dependent noradrenaline transporter (Homo sapiens, UniProt P23975)
Details: not given

Sequence of Sodium-dependent noradrenaline transporter (P23975 whole entry): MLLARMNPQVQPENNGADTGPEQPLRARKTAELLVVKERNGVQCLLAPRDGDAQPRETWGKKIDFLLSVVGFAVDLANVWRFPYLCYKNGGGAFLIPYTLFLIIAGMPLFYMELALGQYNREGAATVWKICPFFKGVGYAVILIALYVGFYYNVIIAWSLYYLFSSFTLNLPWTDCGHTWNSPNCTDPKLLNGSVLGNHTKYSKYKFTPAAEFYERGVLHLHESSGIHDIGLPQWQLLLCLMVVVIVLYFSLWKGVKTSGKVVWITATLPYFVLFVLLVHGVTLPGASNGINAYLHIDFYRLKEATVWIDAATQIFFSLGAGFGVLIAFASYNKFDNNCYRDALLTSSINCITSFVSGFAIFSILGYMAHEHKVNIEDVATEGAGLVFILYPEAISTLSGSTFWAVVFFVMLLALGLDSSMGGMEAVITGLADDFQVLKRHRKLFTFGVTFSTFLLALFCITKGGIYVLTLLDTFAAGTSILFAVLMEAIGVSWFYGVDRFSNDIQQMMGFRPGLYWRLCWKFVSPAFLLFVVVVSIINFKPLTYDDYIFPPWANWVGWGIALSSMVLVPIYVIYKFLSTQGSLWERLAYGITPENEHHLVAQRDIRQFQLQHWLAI

SMILES | IC50 [µM]
CC(N)C1(c2ccc(OC(C)(C)C)cc2)CCCCC1 (configuration not stated) | 5

Target: Sodium-dependent serotonin transporter (Homo sapiens, UniProt P31645)
Type: cell-based, LLC-PK1
Details: not given

Sequence of Sodium-dependent serotonin transporter (P31645 whole entry): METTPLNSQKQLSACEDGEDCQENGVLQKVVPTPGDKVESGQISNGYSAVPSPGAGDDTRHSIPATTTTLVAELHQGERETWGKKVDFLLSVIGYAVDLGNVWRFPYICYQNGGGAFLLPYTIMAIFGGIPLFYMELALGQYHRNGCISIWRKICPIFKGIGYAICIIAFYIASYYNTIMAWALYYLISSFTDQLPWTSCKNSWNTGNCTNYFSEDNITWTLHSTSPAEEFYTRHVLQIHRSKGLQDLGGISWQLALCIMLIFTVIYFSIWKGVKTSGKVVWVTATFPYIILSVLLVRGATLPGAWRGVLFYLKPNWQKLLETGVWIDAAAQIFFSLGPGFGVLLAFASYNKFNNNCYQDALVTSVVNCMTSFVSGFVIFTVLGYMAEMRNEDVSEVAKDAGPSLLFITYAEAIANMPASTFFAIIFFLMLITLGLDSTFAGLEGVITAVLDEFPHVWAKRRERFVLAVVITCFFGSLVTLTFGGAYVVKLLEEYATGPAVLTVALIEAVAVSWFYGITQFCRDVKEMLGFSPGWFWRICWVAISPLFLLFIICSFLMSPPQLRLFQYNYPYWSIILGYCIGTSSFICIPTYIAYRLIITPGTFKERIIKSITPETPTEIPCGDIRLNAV

SMILES | IC50 [µM]
CC(N)C1(c2ccc(OC(C)(C)C)cc2)CCCCC1 (configuration not stated) | 7.1

Target: Voltage-gated inwardly rectifying potassium channel KCNH2 (Homo sapiens, UniProt Q12809)
Details: not given

Sequence of Voltage-gated inwardly rectifying potassium channel KCNH2 (Q12809 whole entry): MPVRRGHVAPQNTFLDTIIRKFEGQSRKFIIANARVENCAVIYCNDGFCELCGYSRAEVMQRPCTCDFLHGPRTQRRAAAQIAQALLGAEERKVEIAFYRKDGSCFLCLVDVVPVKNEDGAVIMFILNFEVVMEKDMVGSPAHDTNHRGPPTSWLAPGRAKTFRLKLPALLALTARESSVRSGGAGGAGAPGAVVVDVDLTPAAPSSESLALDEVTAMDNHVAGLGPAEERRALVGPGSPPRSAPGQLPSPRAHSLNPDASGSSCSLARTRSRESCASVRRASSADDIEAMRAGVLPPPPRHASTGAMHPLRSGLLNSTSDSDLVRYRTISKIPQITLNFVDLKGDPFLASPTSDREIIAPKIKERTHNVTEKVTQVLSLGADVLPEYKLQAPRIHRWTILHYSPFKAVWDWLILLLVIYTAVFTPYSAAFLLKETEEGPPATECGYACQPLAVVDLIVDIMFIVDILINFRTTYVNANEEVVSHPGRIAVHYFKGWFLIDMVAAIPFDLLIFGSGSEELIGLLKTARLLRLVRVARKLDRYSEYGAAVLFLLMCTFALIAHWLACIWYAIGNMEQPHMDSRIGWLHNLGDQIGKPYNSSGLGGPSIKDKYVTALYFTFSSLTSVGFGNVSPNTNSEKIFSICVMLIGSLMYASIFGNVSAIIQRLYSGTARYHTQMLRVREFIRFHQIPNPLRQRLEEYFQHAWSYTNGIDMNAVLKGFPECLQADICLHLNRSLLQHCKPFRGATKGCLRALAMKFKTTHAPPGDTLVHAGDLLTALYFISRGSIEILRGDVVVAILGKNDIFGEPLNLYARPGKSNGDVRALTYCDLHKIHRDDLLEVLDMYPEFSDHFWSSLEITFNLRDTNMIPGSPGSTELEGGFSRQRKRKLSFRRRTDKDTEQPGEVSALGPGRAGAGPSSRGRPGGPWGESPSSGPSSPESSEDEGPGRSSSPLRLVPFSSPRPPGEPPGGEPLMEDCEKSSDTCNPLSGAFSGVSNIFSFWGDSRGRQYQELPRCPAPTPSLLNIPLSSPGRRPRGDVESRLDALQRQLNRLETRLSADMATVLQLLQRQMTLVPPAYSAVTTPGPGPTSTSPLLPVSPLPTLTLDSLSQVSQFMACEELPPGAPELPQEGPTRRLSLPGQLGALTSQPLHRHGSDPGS

SMILES | IC50 [µM]
CC(N(C)C)C1(c2ccc3ccccc3c2)CCCCC1 (single isomer, unassigned; form 1) | 4.3
CC(N(C)C)C1(c2ccc(Cl)c(Cl)c2)CCCCC1 (single isomer, unassigned; enantiomer 1) | 40

Target: Sodium-dependent dopamine transporter (Homo sapiens, UniProt Q01959)
Type: cell-based, COS-7
Details: not given

Sequence of Sodium-dependent dopamine transporter (Q01959 whole entry): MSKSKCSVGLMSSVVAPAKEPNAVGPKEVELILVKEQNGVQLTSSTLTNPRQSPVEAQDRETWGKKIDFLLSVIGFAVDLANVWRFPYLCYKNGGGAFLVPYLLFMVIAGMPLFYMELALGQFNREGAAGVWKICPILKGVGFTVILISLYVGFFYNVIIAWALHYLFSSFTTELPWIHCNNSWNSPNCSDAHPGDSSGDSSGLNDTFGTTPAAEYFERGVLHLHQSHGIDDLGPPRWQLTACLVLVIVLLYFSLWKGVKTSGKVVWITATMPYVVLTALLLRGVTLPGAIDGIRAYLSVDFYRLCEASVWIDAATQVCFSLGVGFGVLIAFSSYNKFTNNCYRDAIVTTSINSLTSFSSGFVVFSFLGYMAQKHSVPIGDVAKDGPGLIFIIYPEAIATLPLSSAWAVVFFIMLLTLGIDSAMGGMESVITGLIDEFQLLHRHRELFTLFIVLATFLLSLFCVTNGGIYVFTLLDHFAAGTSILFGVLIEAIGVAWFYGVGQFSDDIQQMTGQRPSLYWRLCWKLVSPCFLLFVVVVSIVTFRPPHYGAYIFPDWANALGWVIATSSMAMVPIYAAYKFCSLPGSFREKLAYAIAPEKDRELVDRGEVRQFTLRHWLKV

SMILES | IC50 [nM]
CC(N)C1(c2ccc(OC(C)(C)C)cc2)CCCCC1 (configuration not stated) | 1520

Tested on: not listed separately
Assay: (§1) Half life in human liver microsomes by in vitro metabolic stability assay
Type: ADME, Microsome
Details: liver microsomes

SMILES | half-life [min]
CC(N)C1(c2ccc(Cl)c(Cl)c2)CCCCC1 (racemic) | > 300
CC(N)C1(c2cccc3ccccc23)CCCCC1 (configuration not stated) | > 300
CCC(N)C1(c2ccc(Cl)c(Cl)c2)CCCCC1 (racemic) | 96
CC(C)CC(N(C)C)C1(c2ccc(Cl)c(Cl)c2)CCCCC1 (racemic) | 18

Tested on: Liver microsomes
Assay: as §1
Type: ADME, Microsome
Details: microsomes

SMILES | t1/2 [min]
CNC(C)C1(c2ccc3ccccc3c2)CCCCC1 (single isomer, unassigned; enantiomer 2) | 101
CNC(C)C1(c2ccc(Cl)c(Cl)c2)CCCCC1 (stereo in doubt; 24) | 53
CNC(C)C1(c2ccc(Cl)c(Cl)c2)CCCCC1 (racemic) | 281
CC(N(C)C)C1(c2ccc3ccccc3c2)CCCCC1 (single isomer, unassigned; form 1) | 32
CC(N)C1(c2ccc3ccccc3c2)CCCCC1 (single isomer, unassigned) | 150
CNC(C)C1(c2ccc(Cl)c(Cl)c2)CCCCC1 (single isomer, unassigned) | 71
CC(N)C1(c2ccc3ccccc3c2)CCCCC1 (single isomer, unassigned; enantiomer 2) | 164
CC(N(C)C)C1(c2ccc(Cl)c(Cl)c2)CCCCC1 (single isomer, unassigned; enantiomer 1) | 28
